Laboratory results: the supplement of paper PMC13380429

Experiments:
Details in all cases: 72 h
[1] = test system: Caco-2; assay: relative viability EC50 (midpoint between 100% and the lowest measured viability); higher = less toxic
[2] = test system: Calu-3; assay: as above
[3] = test system: HepG2; assay: as above
[4] = test system: U2OS; assay: as above
[5] = test system: Vero E6; assay: as above
[6] = test system: Caco-2; assay: cell viability relative to DMSO; higher = less toxic
[7] = test system: Calu-3; assay: as above
[8] = test system: HepG2; assay: as above
[9] = test system: U2OS; assay: as above
[10] = test system: Vero E6; assay: as above
[11] = test system: Caco-2; assay: drug sensitivity score (DSS) for viability; higher = more toxic; extreme values may be limits of the assay
[12] = test system: Calu-3; assay: as above
[13] = test system: HepG2; assay: as above
[14] = test system: U2OS; assay: as above
[15] = test system: Vero E6; assay: as above

| Compound | relative viability EC50 [1] [µM] | relative viability EC50 [2] [µM] | relative viability EC50 [3] [µM] | relative viability EC50 [4] [µM] | relative viability EC50 [5] [µM] | cell viability ([6]; 1 nM) [%] | cell viability ([6]; 10 nM) [%] | cell viability ([6]; 100 nM) [%] | cell viability ([6]; 1000 nM) [%] | cell viability ([6]; 10000 nM) [%] | cell viability ([7]; 1 nM) [%] | cell viability ([7]; 10 nM) [%] | cell viability ([7]; 100 nM) [%] | cell viability ([7]; 1000 nM) [%] | cell viability ([7]; 10000 nM) [%] | cell viability ([8]; 1 nM) [%] | cell viability ([8]; 10 nM) [%] | cell viability ([8]; 100 nM) [%] | cell viability ([8]; 1000 nM) [%] | cell viability ([8]; 10000 nM) [%] | cell viability ([9]; 1 nM) [%] | cell viability ([9]; 10 nM) [%] | cell viability ([9]; 100 nM) [%] | cell viability ([9]; 1000 nM) [%] | cell viability ([9]; 10000 nM) [%] | cell viability ([10]; 1 nM) [%] | cell viability ([10]; 10 nM) [%] | cell viability ([10]; 100 nM) [%] | cell viability ([10]; 1000 nM) [%] | cell viability ([10]; 10000 nM) [%] | drug sensitivity score [11] | drug sensitivity score [12] | drug sensitivity score [13] | drug sensitivity score [14] | drug sensitivity score [15] |
| --- | --- | --- | --- | --- | --- | --- | --- | --- | --- | --- | --- | --- | --- | --- | --- | --- | --- | --- | --- | --- | --- | --- | --- | --- | --- | --- | --- | --- | --- | --- | --- | --- | --- | --- | --- |
| O=C1OC(CN2CCOCC2)CN1/N=C/c1ccc([N+](=O)[O-])o1 (stereo not given) [furaltadone] | > 10 | > 10 | > 10 | > 10 | > 10 | 96.5 | 87 | 79.7 | 99.8 | 82.3 | 95.7 | 93.6 | 94.4 | 103 | 104 | 96.4 | 93.3 | 92.8 | 81.7 | 82.5 | 99.8 | 99.3 | 95.4 | 106 | 95.1 | 108 | 94 | 103 | 109 | 102 | 0 | 0 | 2.1 | 0 | 0 |
| CC(=O)[C@H]1CC[C@H]2[C@@H]3CC[C@H]4C[C@](C)(O)CC[C@]4(C)[C@H]3CC[C@]12C [ganaxolone] | > 10 | > 10 | > 10 | > 10 | > 10 | 95 | 98.7 | 98.2 | 98.7 | 101 | 96.7 | 94 | 98.5 | 98.4 | 102 | 93.4 | 108 | 94.2 | 102 | 101 | 98.8 | 99.4 | 101 | 100 | 100 | 89.8 | 103 | 91.2 | 95.7 | 106 | 0 | 0 | 0 | 0 | 0 |
| NCC(=O)N[C@@H](CCC(N)=O)C(=O)O [gly-gln] | > 10 | > 10 | > 10 | > 10 | > 10 | 95.5 | 92.6 | 92.9 | 102 | 97.7 | 95.9 | 91.9 | 92.7 | 99.2 | 109 | 86.6 | 100 | 91.7 | 106 | 104 | 99.2 | 95.4 | 96.7 | 98.3 | 97.1 | 91.8 | 101 | 91.7 | 94.2 | 107 | 0 | 0 | 0 | 0 | 0 |
| COc1ccc([C@@H]2CC(=O)c3c(O)cc(O[C@@H]4O[C@H](CO[C@@H]5O[C@@H](C)[C@H](O)[C@@H](O)[C@H]5O)[C@@H](O)[C@H](O)[C@H]4O)cc3O2)cc1O [hesperidin] | > 10 | > 10 | > 10 | > 10 | > 10 | 98.3 | 103 | 97.5 | 88.1 | 98.9 | 89.1 | 86.3 | 91.6 | 97.9 | 101 | 99 | 109 | 99.1 | 103 | 83.7 | 97.5 | 97.9 | 102 | 99.7 | 104 | 103 | 102 | 99 | 98.5 | 99.8 | 0 | 0 | 0.2 | 0 | 0 |
| CCCCCCc1ccc(O)cc1O [hexylresorcinol] | > 10 | > 10 | > 10 | > 10 | > 10 | 95.9 | 98.5 | 98.4 | 100 | 94.9 | 91 | 109 | 104 | 97.8 | 99.7 | 105 | 98.7 | 107 | 93.7 | 94 | 98.3 | 101 | 97.5 | 104 | 99.9 | 102 | 101 | 106 | 103 | 96.7 | 0 | 0 | 0 | 0 | 0 |
| CC(=O)OCC(=O)[C@@]1(O)CC[C@H]2[C@@H]3CCC4=CC(=O)CC[C@]4(C)[C@H]3[C@@H](O)C[C@@]21C [hydrocortisone-acetate] | > 10 | > 10 | > 10 | > 10 | > 10 | 92.6 | 94.4 | 106 | 97.6 | 107 | 93.8 | 102 | 97.9 | 96.8 | 89.2 | 101 | 105 | 105 | 99.5 | 103 | 94.6 | 97 | 93 | 97.7 | 98.6 | 95.7 | 99.4 | 96.2 | 95.4 | 101 | 0 | 0 | 0 | 0 | 0 |
| O=c1[nH]cnc2nc[nH]c12 [hypoxanthine] | > 10 | > 10 | > 10 | > 10 | > 10 | 101 | 87 | 102 | 103 | 112 | 98.1 | 90.3 | 102 | 95.4 | 102 | 100 | 102 | 97.7 | 95.5 | 94 | 98 | 97.8 | 102 | 102 | 113 | 105 | 105 | 102 | 104 | 96.5 | 0 | 0 | 0 | 0 | 0 |
